Reference: US20090131354A1, “miR-126 REGULATED GENES AND PATHWAYS AS TARGETS FOR THERAPEUTIC INTERVENTION” (priority 2007, published 2009)

Tests used:
[1] = tested on: HCC2935 lung cancer cells; assay: Alamar Blue proliferation assay, HCC2935; format: cell-based, human; settings: HCC2935, 30 nM, 72 h, relative to NC miRNA (100%)
Source text: The inventors assessed the therapeutic effect of hsa-miR-126 for lung cancer by using 11 individual lung cancer cell lines. To measure cellular proliferation of lung cancer cells, the following non-small cell lung cancer (NSCLC) cells were used: cells derived from lung adenocarcinoma (A549, H1299, H522, H838, Calu-3, HCC827, HCC2935), cells derived from lung squamous cell carcinoma (H520, H226), cells derived from lung bronchioalveolar carcinoma (H1650), and cells derived from lung large cell carcinoma (H460). Synthetic hsa-miR-126 (Pre-miR™-hsa-miR-126, Ambion cat. no. AM17100) or negative control (NC) miRNA (Pre-miR™ microRNA Precursor Molecule-Negative Control #2; Ambion cat. no. AM17111) was delivered via lipid-based transfection into A549, H1299, H522, H838, Calu-3, HCC827, HCC2935, H520, H1650, and H460 cells, and via electroporation into H226 cells.
Lipid-based reverse transfections were carried out in triplicate according to a published protocol (Ovcharenko et al., 2005) and the following parameters: Cells (5,000-12,000 per 96 well), 0.1-0.2 μl Lipofectamine™ 2000 (cat. no. 11668-019, Invitrogen Corp., Carlsbad, Calif., USA) in 20 μl OptiMEM (Invitrogen), 30 nM final concentration of miRNA in 100 μl. […]

[2] = tested on: human PPC-1 prostate cancer xenograft; assay: PPC-1 prostate cancer xenograft; format: in vivo, NOD/SCID mice; settings: PPC-1 xenograft
Description: Therefore, hsa-miR-126 is a likely to interfere with prostate tumor growth in the animal. To explore this possibility, the therapeutic potential of synthetic hsa-miR-126 miRNA was evaluated in the animal using the PPC-1 human prostate cancer xenograft. As described in Example 8, 5×10^6 PPC-1 cells per animal were electroporated with 1.6 μM synthetic hsa-miR-126 or negative control miRNA (Pre-miR™-hsa-miR-126, Ambion cat. no. AM17100; NC, Pre-miR™ microRNA Precursor Molecule-Negative Control #2, Ambion cat. no. AM17111), mixed with BD Matrigel™, (BD Biosciences; San Jose, Calif., USA; cat. no. 356237) in a 1:1 ratio and implanted subcutaneously into the lower back of NOD/SCID mice (Charles River Laboratories, Inc.; Wilmington, Mass., USA). A group of 7 mice was injected with hsa-miR-126 treated PPC-1 cells, and a group of 7 animals was injected with PPC-1 cells treated with negative control miRNA. To maintain steady levels of miRNA, 6.25 μg of each hsa-miR-126 or negative control miRNA conjugated with the lipid-based siPORT™ amine delivery agent (Ambion, Austin, Tex.; cat. no. AM4502) were repeatedly administered on days 7, 13 and 20 via intra-tumoral injections. Given an average mouse weight of 20 g, this dose equals 0.3125 mg/kg. Tumor growth was monitored by taking caliper measurements every 1-2 days for 22 days. Tumor volumes were calculated using the formula, Volume=length×width×width/2, in which the length is greater than the width, and plotted over time (FIG. 13). Standard deviations and data points with p values <0.01, indicating statistical significance, are shown in graph.

hsa-miR-126 (UCGUACCGUGAGUAAUAAUGC; synthetic pre-miR form, further chemistry not given here) [Synthetic hsa-miR-126 (Pre-miR™-hsa-miR-126, Ambion cat. no. AM17100)]
% proliferation [1]: 66.89%
average volume of tumors ([2]; day 22, 6.25 μg intratumoral days 7, 13, 20): 157 mm^3
tumor volumes after treatment ([2]; in response to treatments on days 7 and 13): approximately 130 mm^3
tumor growth ([2]; repeated dosing): blocked tumor growth
